The values that follow come from patent publication US10851093B2, “Tyrosine kinase inhibitors” (Rigel Pharmaceuticals, Inc., priority 2018, dated 2020).

One assay deals with T1, MerTK (Homo sapiens, UniProt Q12866).
T1 construct: Seed HUVECs (10K cells/well) in EBM-2 complete media; host or cells: HUVEC
T1 sequence (Q12866 21-999): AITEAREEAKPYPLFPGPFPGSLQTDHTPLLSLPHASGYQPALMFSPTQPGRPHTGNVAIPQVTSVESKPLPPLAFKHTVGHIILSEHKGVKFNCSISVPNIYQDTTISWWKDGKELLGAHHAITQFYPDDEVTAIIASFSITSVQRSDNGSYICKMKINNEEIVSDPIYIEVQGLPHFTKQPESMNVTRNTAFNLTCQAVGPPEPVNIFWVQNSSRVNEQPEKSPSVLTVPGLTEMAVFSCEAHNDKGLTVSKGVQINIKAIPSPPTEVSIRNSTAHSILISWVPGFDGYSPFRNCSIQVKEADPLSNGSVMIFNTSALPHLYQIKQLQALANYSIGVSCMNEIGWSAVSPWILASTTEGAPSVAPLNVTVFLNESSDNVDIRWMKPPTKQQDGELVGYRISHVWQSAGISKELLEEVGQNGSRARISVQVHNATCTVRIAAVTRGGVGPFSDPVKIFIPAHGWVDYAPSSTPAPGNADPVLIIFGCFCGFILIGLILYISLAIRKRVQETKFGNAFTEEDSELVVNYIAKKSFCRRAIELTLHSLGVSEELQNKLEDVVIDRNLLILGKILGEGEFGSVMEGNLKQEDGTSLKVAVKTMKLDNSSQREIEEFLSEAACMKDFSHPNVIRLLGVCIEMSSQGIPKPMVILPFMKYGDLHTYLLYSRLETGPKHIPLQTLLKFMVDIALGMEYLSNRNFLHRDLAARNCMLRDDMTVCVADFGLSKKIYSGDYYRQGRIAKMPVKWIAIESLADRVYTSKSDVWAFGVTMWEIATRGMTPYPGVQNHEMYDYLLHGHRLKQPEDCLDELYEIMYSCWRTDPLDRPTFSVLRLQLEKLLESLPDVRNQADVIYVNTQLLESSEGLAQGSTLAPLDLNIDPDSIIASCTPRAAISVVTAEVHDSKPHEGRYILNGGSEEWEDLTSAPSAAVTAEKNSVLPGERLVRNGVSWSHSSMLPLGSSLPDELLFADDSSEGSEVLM
Briefly: Phospho-AKT HTRF, HUVEC, Mer-XL, 8 pt (pAKT HTRF-HUVEC assay, anti-human MerTK-XL stimulation). The assay is classed as cell-based. The following applies: HUVEC cells, pAkt(Ser473) HTRF, anti-human MerTK-XL stimulation 1 ug/mL 10 minutes. The procedure:
(§1) Example 13: PAKT HTRF-HUVEC Assay
(§2) Seed HUVECs (10K cells/well) in EBM-2 complete media (EBM-2 basal medium plus EGM-2 BulletKit supplements) overnight at 37° C., 5% CO2 in Costar 96-well white clear-bottom plates. Remove culture media and starve cells for 3-4 hours in 50 μL/well EBM-2 basal medium. Perform serial dilution of compounds in DMSO from 2.5 mM in 4-fold dilutions, and then dilute 1:125 in EBM-2 basal media. Mix 50 μL/well 2× compounds with 50 μL/well HUVECs in duplicate in Costar 96-well white clear-bottom plates. Incubate plates for 1 hour at 37° C., 5% CO2. Cross-link anti-human MerTK antibody to Biotin-SP-conjugated anti-mouse IgG antibody (1:1) to give final concentrations of 5 μg/mL of anti-human MerTK-XL. Stimulate HUVECs with 25 μL/well 5× anti-human MerTK-XL to give final concentrations of 1 ug/mL for 10 minutes at 37° C., 5% CO2. Completely remove media and lyse HUVECs with 40 uL:WELL per well of Cisbio HTRF 1× lysis buffer. Performed pAkt(Ser473) HTRF assay in ProxiPlate-384 Plus, white 384-shallow well microplate according to the vendor protocol and read plates with a SpectralMax Paradigm plate reader. Enter the HTRF values into Athena (Rigel) for curve fitting, EC50 calculation, and database storage.
On the technique in general: Time-resolved FRET reads energy transfer from a long-lived donor to a nearby acceptor.

The target of another assay is T2, Axl (Homo sapiens, UniProt P30530).
T2 construct: Seed HUVECs (10K cells/well) in EBM-2 complete media; host or cells: HUVEC
T2 sequence (P30530 26-894): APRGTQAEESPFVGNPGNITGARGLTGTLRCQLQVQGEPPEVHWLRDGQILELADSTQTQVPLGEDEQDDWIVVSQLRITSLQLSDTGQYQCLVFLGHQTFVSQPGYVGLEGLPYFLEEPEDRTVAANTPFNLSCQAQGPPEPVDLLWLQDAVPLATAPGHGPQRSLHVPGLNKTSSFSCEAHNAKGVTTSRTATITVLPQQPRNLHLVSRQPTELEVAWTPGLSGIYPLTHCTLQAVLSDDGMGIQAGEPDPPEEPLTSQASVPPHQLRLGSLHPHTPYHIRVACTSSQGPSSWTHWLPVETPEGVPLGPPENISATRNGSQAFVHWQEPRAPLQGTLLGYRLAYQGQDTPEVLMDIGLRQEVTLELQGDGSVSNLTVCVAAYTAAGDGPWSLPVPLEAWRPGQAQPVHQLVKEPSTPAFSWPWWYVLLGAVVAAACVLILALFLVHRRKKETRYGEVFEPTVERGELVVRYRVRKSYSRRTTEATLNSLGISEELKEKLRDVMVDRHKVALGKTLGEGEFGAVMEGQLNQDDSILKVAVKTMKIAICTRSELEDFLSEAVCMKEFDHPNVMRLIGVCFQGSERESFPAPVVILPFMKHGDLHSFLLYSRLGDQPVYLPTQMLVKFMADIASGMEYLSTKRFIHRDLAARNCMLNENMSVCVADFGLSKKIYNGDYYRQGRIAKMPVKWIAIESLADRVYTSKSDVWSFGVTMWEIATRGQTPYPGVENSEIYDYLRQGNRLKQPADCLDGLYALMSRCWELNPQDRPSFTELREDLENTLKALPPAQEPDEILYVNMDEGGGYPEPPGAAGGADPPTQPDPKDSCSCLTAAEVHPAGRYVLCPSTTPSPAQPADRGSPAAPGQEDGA
As to the kind of experiment: Phospho-AKT HTRF, HUVEC, Axl ABX-L, 8 pt. In kind it is cell-based. As to conditions: HUVEC cells, pAkt(Ser473) HTRF, Axl ABX-L stimulation. As for the experimental part:
[The source words this procedure for another target and reports this target under the same test.] as §1, §2

Structures are written as SMILES.

In general, EC50 refers to the midpoint of the concentration-response curve. For `COc1cc2c(Oc3ccc(NC(=O)c4csc(N5CCCCC5)n4)nc3)ccnc2cc1OCCCN1CCOCC1` [Compound 46, N-(5-((6-methoxy-7-(3-morpholinopropoxy)quinolin-4-yl)oxy)pyridin-2-yl)-2-(piperidin-1-yl)thiazole-4-carboxamide], the EC50 on MerTK stood at 0.0128 µM; on Axl, 0.0209 µM.

Consider `COc1cc2c(Oc3ccc(NC(=O)c4cc(N5CCCCC5)ccn4)nc3)ccnc2cc1OCCCN1CCOCC1` [Compound 13, N-(5-((6-methoxy-7-(3-morpholinopropoxy)quinolin-4-yl)oxy)pyridin-2-yl)-4-(piperidin-1-yl)picolinamide], for which the EC50 on MerTK stood at 0.0202 µM; on Axl it was 0.0538 µM.

As to `COc1cc2c(Oc3ccc(NC(=O)c4ncc(N5CCCCC5)s4)nc3)ccnc2cc1OCCCN1CCOCC1` [Compound 47, N-(5-((6-methoxy-7-(3-morpholinopropoxy)quinolin-4-yl)oxy)pyridin-2-yl)-5-(piperidin-1-yl)thiazole-2-carboxamide], the EC50 was found to be 0.119 µM on MerTK and 0.13 µM on Axl.

Take `COc1cc2c(Oc3ccc(NC(=O)c4nc(-c5ccccc5)c5ccccc5n4)nc3)ccnc2cc1OCCCN1CCOCC1` [Compound 5, N-(5-((6-Methoxy-7-(3-morpholinopropoxy)quinolin-4-yl)oxy)pyridin-2-yl)-4-phenylquinazoline-2-carboxamide]: the values for the concentration for a half-maximal effect (EC50) on MerTK and on Axl were 0.0022 µM and 0.0014 µM, respectively.

On to `COc1cc2c(Oc3ccc(NC(=O)c4cccc(N5CCCC5)n4)nc3)ccnc2cc1OCCCN1CCOCC1` [Compound 26, N-(5-((6-methoxy-7-(3-morpholinopropoxy)quinolin-4-yl)oxy)pyridin-2-yl)-6-(pyrrolidin-1-yl)picolinamide], for which the EC50 on MerTK amounted to 0.007 µM; at Axl it was 0.032 µM.

As for `COc1cc2c(Oc3ccc(NC(=O)c4cccc(N5CCC(F)(F)CC5)n4)nc3)ccnc2cc1OCCCN1CCOCC1` [Compound 28, 6-(4,4-difluoropiperidin-1-yl)-N-(5-((6-methoxy-7-(3-morpholinopropoxy)quinolin-4-yl)oxy)pyridin-2-yl)picolinamide], the EC50 on MerTK is 0.0061 µM; on Axl, 0.0387 µM.

For the molecule `COc1cc2c(Oc3ccc(NC(=O)c4nc(-c5ccccc5)c5c(n4)C4CCN5CC4)cc3F)ccnc2cc1OCCCN1CCOCC1` [Compound 36, N-(3-fluoro-4-((6-methoxy-7-(3-morpholinopropoxy)quinolin-4-yl)oxy)phenyl)-4-phenyl-7,8-dihydro-6H-5,8-ethanopyrido[3,2-d]pyrimidine-2-carboxamide], the EC50 at MerTK is 0.0095 µM; on Axl it was 0.0058 µM.

On to `COc1cc2c(Oc3ccc(NC(=O)c4nc(-c5ccccc5)c5c(n4)C4CCN5CC4)nc3)ccnc2cc1OCCCN1CCOCC1` [Compound 35, N-(5-((6-methoxy-7-(3-morpholinopropoxy)quinolin-4-yl)oxy)pyridin-2-yl)-4-phenyl-7,8-dihydro-6H-5,8-ethanopyrido[3,2-d]pyrimidine-2-carboxamide], for which the EC50 on MerTK was 0.005 µM; at Axl, 0.003 µM.

Turning to `COc1cc2c(Oc3ccc(NC(=O)c4cc(N5CCC(O)CC5)ccn4)nc3)ccnc2cc1OCCCN1CCOCC1` [Compound 8, 4-(4-Hydroxypiperidin-1-yl)-N-(5-((6-methoxy-7-(3-morpholino-propoxy)quinolin-4-yl)oxy)pyridin-2-yl)picolinamide, trifluoroacetic acid], the concentration for a half-maximal effect (EC50) amounted to 0.0909 µM at MerTK and 0.228 µM at Axl.

On to `COc1cc2c(Oc3ccc(NC(=O)c4cc(C(F)(F)F)ccn4)nc3)ccnc2cc1OCCCN1CCOCC1` [Compound 34, N-(5-((6-Methoxy-7-(3-morpholinopropoxy)quinolin-4-yl)oxy)pyridin-2-yl)-4-(trifluoromethyl)picolinamide], for which the EC50 on MerTK is 0.183 µM; on Axl it was 0.327 µM.

On to `COc1cc2c(Oc3ccc(NC(=O)c4cccc(-c5ccccc5)n4)nc3)ccnc2cc1OCCCN1CCOCC1` [Compound 10, N-(5-((6-Methoxy-7-(3-morpholinopropoxy)quinolin-4-yl)oxy)pyridin-2-yl)-6-phenylpicolinamide], for which the EC50 at MerTK turned out to be 0.0049 µM; at Axl, 0.0129 µM.

Take `COc1cc2c(Oc3ccc(NC(=O)c4cccc(N5CCOCC5)n4)nc3)ccnc2cc1OCCCN1CCOCC1` [Compound 25, N-(5-((6-methoxy-7-(3-morpholinopropoxy)quinolin-4-yl)oxy)pyridin-2-yl)-6-morpholinopicolinamide]: the EC50 was 0.0143 µM at MerTK and 0.112 µM on Axl.

In the case of `COc1cc2c(Oc3ccc(NC(=O)c4nc5ccccc5c(=O)[nH]4)nc3)ccnc2cc1OCCCN1CCOCC1` [Compound 9, N-(5-((6-Methoxy-7-(3-morpholinopropoxy)quinolin-4-yl)oxy)pyridin-2-yl)-4-oxo-3,4-dihydroquinazoline-2-carboxamide, trifluoroacetic acid], the results for the EC50 at MerTK and at Axl were 0.0427 µM and 0.0717 µM, respectively.

Consider `COc1cc2c(Oc3ccc(NC(=O)c4cc(C)ccn4)nc3)ccnc2cc1OCCCN1CCOCC1` [Compound 32, N-(5-((6-Methoxy-7-(3-morpholinopropoxy)quinolin-4-yl)oxy)pyridin-2-yl)-4-methylpicolinamide], for which the EC50 was determined as 0.163 µM at MerTK and 0.462 µM at Axl.

Consider `COc1cc2c(Oc3ccc(NC(=O)c4nc(-c5ccccc5)c5c(n4)C4CCN5CC4)nc3)ccnc2cc1OCCCN1CCOCC1` [Compound 6, N-(5-((6-methoxy-7-(3-morpholinopropoxy)quinolin-4-yl)oxy)pyridin-2-yl)-4-phenyl-7,8-dihydro-6H-5,8-ethanopyrido[3,2-d]pyrimidine-2-carboxamide, hydrochloric acid], for which the EC50 at MerTK was determined as 0.0025 µM; on Axl it was 0.0033 µM.

For the molecule `COc1cc2c(Oc3ccc(NC(=O)c4cc(N5CC6(CCOCC6)C5)ccn4)nc3)ccnc2cc1OCCCN1CCOCC1` [Compound 18, N-(5-((6-methoxy-7-(3-morpholinopropoxy)quinolin-4-yl)oxy)pyridin-2-yl)-4-(7-oxa-2-azaspiro[3.5]nonan-2-yl)picolinamide], the EC50 at MerTK was 0.098 µM; at Axl, 0.114 µM.
